From ChEMBL document CHEMBL5625247, “Tetrahydro-β-carboline derivatives as potent histone deacetylase 6 inhibitors with broad-spectrum antiproliferative activity” (Eur J Med Chem, 2023) come the findings set out here.

Series [1] deals with Histone deacetylase 3 (Homo sapiens, UniProt O15379). The experiment in a line: Inhibition of HDAC3 (unknown origin) expressed in baculovirus infected in Sf9 cells using RHKKAc as substrate preincubated for 5 to 10 mins followed by substrate addition measured after 2 hrs by fluorescence based assay.
Series [2] in a line: Oral bioavailability in Sprague-Dawley rat at 3 mg/kg by LC-MS/MS analysis. It is filed as ADME, organism-based. Conditions: in vivo.
For series [3], the target named is Polyamine deacetylase HDAC10 (Homo sapiens, UniProt Q969S8). The experiment in a line: Inhibition of HDAC10 (unknown origin) TR-FRET assay. Further details: species or system Sf9. (In general: TR-FRET usually uses a lanthanide donor and a delayed reading to cut background.)
The target in series [4] is T1, Protein deacetylase HDAC6 (Homo sapiens) (UniProt Q9UBN7).
T1 sequence (whole entry): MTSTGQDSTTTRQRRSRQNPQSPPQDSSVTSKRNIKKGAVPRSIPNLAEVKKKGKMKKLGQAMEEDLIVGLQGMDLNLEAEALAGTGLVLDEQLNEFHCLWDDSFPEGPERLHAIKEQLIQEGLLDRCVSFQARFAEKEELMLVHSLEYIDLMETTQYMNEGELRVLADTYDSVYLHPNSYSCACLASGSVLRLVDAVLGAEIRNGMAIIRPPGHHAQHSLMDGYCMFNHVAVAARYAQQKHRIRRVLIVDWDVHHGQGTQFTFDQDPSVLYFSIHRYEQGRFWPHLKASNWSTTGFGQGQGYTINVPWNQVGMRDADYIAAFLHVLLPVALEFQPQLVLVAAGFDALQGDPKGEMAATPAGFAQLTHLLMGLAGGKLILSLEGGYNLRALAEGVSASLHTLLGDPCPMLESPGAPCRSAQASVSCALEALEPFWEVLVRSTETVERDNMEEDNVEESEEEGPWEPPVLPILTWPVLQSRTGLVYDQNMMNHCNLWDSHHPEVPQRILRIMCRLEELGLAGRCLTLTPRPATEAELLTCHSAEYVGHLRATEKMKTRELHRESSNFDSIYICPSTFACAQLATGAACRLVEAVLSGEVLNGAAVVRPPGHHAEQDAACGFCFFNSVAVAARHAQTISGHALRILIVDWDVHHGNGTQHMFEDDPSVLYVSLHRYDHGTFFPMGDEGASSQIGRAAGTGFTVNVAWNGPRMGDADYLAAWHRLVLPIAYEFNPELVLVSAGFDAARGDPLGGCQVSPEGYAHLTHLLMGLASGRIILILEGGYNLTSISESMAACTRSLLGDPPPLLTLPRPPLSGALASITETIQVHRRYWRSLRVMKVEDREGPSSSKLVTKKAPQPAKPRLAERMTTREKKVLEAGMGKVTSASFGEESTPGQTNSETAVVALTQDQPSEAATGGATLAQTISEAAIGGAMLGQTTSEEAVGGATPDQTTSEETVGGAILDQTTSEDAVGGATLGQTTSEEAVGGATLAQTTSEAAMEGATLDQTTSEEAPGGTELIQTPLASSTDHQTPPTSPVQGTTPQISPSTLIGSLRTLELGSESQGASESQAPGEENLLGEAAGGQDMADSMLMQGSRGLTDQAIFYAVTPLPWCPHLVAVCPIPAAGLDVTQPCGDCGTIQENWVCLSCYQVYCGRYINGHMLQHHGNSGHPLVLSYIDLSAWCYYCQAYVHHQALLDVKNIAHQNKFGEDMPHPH
The experiment in a line: Inhibition of HDAC6 in human RPMI-8226 cells assessed as increase in alpha-tubulin acetylation at 1 to 10 uM incubated for 24 hrs by Western blot analysis. In kind it is cell-based. Conditions: dose 1-10 µM.

Series [5] addresses Histone deacetylase 11 (Homo sapiens, UniProt Q96DB2). As to the kind of experiment: Inhibition of HDAC11 (unknown origin) expressed in baculovirus infected in Sf9 cells using RHKKAc as substrate preincubated for 5 to 10 mins followed by substrate addition measured after 2 hrs by fluorescence based assay.
For series [6], the target named is T2, Protein deacetylase HDAC6 (Homo sapiens, UniProt Q9UBN7).
T2 sequence (Q9UBN7 whole entry): T1 sequence (whole entry)
The experiment in a line: Inhibition of HDAC6 (unknown origin) expressed in baculovirus infected in Sf9 cells using RHKKAc as substrate preincubated for 5 to 10 mins followed by substrate addition measured after 2 hrs by fluorescence based assay.

In series [7] the target is Histone deacetylase 5 (Homo sapiens, UniProt Q9UQL6). As to the kind of experiment: Inhibition of HDAC5 (unknown origin) expressed in baculovirus infected in Sf9 cells using RHKKAc as substrate preincubated for 5 to 10 mins followed by substrate addition measured after 2 hrs by fluorescence based assay.
Series [8] can be described thus: Half life in Sprague-Dawley rat at 3 mg/kg, po by LC-MS/MS analysis. In kind it is ADME, organism-based. Conditions: in vivo.
The nature of series [9]: Cmax in Sprague-Dawley rat at 0.2 mg/kg, iv by LC-MS/MS analysis. In kind it is ADME, organism-based. Conditions: in vivo.
Series [10] can be described thus: AUC (0 to infinity) in Sprague-Dawley rat at 0.2 mg/kg, iv by LC-MS/MS analysis. In kind it is ADME, organism-based. Conditions: in vivo.
Series [11] deals with Histone deacetylase 4 (Homo sapiens, UniProt P56524). The experiment in a line: Inhibition of HDAC4 (unknown origin) expressed in baculovirus infected in Sf9 cells using RHKKAc as substrate preincubated for 5 to 10 mins followed by substrate addition measured after 2 hrs by fluorescence based assay.
Series [12] can be described thus: AUC (0 to last) in Sprague-Dawley rat at 3 mg/kg, po by LC-MS/MS analysis. The following applies: in vivo. In kind it is ADME, organism-based.
Series [13] in a line: AUC (0 to last) in Sprague-Dawley rat at 0.2 mg/kg, iv by LC-MS/MS analysis. It is filed as ADME, organism-based. The following applies: in vivo.
Series [14] is described as follows: AUC (0 to infinity) in Sprague-Dawley rat at 3 mg/kg, po by LC-MS/MS analysis. Conditions: in vivo. In kind it is ADME, organism-based.
In series [15] the target is Histone deacetylase 1 (Homo sapiens, UniProt Q13547). The experiment in a line: Inhibition of HDAC1 (unknown origin) expressed in baculovirus infected in Sf9 cells using RHKKAc as substrate at 500 nM preincubated for 5 to 10 mins followed by substrate addition measured after 2 hrs by fluorescence based assay relative to control. Conditions: time 5-130 min.

Each structure is given as a SMILES string. Active and inactive are the calls of the source. Some results are limits rather than exact numbers.

Sequence of Histone deacetylase 1 (Q13547 whole entry): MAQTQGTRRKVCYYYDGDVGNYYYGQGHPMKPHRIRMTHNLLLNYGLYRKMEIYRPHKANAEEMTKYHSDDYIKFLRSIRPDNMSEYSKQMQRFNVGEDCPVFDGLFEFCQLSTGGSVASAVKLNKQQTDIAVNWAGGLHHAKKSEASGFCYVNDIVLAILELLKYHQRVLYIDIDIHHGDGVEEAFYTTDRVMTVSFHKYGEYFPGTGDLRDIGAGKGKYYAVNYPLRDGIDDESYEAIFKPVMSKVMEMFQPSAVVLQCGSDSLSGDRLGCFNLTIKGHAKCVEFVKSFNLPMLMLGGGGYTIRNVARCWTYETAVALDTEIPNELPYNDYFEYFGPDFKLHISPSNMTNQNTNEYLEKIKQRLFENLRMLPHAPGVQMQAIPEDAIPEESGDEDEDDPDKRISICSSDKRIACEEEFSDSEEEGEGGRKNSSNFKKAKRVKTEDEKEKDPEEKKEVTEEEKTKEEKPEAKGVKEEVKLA
Sequence of Histone deacetylase 4 (P56524 whole entry): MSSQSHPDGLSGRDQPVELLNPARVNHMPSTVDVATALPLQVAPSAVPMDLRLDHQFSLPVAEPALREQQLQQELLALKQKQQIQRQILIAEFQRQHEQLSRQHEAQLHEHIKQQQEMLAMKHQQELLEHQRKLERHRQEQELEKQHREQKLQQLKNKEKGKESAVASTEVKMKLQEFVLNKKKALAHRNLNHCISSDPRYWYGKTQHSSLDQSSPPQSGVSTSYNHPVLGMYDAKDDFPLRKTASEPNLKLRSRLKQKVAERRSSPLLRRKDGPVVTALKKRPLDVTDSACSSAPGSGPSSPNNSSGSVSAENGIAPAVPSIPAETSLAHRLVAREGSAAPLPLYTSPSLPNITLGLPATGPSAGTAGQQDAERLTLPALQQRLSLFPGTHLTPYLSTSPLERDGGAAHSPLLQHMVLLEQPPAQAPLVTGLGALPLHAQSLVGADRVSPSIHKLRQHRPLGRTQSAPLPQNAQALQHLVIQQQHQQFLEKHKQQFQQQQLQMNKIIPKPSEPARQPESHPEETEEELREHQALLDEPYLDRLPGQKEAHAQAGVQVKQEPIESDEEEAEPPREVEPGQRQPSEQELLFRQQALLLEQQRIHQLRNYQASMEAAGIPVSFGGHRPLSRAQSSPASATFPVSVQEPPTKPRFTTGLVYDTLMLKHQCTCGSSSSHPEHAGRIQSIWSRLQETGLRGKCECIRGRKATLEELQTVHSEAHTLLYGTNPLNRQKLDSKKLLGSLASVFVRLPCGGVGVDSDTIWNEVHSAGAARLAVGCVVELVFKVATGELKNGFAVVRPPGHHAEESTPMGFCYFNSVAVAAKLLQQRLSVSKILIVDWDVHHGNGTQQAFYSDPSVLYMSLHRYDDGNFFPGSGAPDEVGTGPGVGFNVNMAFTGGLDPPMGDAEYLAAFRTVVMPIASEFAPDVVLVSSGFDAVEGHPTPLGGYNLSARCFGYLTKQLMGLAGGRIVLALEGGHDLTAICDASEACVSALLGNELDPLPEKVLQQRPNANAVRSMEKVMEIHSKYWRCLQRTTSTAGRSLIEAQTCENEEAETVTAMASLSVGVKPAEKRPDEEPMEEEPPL
Sequence of Polyamine deacetylase HDAC10 (Q969S8 whole entry): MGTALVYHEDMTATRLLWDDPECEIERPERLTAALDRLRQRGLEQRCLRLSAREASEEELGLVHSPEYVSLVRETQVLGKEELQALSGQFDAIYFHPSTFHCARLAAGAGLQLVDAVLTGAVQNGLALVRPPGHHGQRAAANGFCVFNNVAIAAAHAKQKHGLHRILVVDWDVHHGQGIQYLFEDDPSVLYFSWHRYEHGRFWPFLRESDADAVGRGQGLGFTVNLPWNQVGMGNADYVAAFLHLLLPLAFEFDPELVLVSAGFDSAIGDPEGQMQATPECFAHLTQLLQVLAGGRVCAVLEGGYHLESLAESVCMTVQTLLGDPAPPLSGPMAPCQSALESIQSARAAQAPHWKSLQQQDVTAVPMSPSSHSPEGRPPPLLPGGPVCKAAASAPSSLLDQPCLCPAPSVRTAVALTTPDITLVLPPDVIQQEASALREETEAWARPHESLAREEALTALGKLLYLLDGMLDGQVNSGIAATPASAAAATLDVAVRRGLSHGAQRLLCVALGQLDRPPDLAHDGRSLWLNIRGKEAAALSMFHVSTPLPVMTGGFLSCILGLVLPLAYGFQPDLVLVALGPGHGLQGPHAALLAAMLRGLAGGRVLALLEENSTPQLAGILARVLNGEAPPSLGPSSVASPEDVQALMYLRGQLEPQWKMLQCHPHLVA
Sequence of Histone deacetylase 5 (Q9UQL6 whole entry): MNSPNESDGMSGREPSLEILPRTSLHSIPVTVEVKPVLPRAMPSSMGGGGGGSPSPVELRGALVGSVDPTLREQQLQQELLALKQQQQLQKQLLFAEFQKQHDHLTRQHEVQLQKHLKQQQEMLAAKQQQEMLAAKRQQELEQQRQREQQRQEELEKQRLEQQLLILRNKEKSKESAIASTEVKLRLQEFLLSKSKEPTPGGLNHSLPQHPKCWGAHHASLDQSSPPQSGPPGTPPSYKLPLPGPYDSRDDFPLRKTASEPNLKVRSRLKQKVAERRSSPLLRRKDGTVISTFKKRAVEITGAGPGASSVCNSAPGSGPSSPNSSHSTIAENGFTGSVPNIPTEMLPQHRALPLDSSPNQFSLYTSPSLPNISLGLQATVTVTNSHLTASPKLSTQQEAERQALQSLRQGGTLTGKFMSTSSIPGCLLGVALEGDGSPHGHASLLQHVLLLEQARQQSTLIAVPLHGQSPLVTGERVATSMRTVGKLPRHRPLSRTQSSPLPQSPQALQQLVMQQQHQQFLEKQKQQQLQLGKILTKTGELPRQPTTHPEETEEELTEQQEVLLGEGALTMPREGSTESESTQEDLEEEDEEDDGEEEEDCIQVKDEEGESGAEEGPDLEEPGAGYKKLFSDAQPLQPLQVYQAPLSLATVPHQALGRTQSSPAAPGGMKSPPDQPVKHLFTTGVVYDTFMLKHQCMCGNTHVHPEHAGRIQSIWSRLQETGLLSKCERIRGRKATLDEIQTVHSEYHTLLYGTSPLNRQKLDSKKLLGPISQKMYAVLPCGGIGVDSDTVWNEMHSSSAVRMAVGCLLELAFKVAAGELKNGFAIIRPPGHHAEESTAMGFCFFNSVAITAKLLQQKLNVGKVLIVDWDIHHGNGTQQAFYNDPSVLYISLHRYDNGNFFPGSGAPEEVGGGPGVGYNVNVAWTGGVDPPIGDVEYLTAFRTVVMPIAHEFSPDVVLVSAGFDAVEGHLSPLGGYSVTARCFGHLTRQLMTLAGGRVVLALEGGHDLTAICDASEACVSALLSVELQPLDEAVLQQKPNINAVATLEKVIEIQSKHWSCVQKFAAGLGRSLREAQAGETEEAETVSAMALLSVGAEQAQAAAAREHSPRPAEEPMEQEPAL
Sequence of Histone deacetylase 11 (Q96DB2 whole entry): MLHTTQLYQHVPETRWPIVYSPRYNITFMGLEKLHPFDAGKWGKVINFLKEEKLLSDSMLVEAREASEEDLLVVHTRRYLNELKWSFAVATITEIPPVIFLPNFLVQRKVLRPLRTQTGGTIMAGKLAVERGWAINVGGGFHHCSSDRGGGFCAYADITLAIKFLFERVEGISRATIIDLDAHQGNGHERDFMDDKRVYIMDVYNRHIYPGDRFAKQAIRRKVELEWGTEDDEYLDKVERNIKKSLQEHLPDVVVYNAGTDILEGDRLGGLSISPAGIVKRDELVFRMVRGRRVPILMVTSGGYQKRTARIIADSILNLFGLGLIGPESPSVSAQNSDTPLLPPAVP
Sequence of Histone deacetylase 3 (O15379 whole entry): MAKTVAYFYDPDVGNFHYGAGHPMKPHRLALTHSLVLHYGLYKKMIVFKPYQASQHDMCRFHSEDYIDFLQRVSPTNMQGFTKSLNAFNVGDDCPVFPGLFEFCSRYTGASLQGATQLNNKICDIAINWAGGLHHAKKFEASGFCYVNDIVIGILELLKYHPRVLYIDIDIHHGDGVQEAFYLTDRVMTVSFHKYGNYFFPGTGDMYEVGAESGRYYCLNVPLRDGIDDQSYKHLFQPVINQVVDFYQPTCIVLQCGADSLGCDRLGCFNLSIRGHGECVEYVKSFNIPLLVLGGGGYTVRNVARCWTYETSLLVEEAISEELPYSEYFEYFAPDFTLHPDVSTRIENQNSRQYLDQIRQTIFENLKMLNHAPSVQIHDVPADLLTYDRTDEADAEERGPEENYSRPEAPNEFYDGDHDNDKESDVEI

The IC50 is the concentration at which inhibition is half-maximal. Low values mean higher potency, high ones lower potency. The term bioavailability denotes the share of a dose that reaches the circulation, judged against a reference dose that is usually intravenous. For orientation: inhibition means the drop in the measured response relative to a control, in per cent. By half-life is commonly meant the time needed for the level to fall by half in the phase considered. The low end stands for fast loss, the high end for slow loss. As a reminder, the Cmax is the maximum level reached in the sampled fluid or tissue. As usually defined, the AUC(0-inf) is total exposure, with the tail of the curve extrapolated. Higher therefore signals high exposure. One may read the AUC(0-t) as the area under the concentration-time curve up to a stated or last time point. High values mean high exposure, low ones low exposure. For the molecule `O=C(NO)c1ccc(CNC(=O)[C@H]2Cc3c([nH]c4ccccc34)[C@H](c3ccc(Cl)cc3)N2)cc1`, the IC50 in series [1] is 103 nM; in [3], 496 nM; in series [5] it was 2100 nM; in series [6] it was 2.68 nM; in series [7] it was greater than 50000 nM; in [11], greater than 50000 nM. In series [2], this molecule yielded a bioavailability of 43.8%. For the same molecule, the inhibition entry in series [4] is “Active”. In series [8], the half-life was 3.41 h. Further, the concentration in [9] peaked (Cmax) at 1020 nM. Moreover, the AUC(0-inf) in [10] amounted to 1.52 µM·h; in [14], 9.71 µM·h. Further, the AUC(0-t) in [12] is 9.6 µM·h; in series [13], 1.46 µM·h.
In turn, `COc1ccc(CN2[C@@H](C(=O)NCc3ccc(C(=O)NO)cc3)Cc3c([nH]c4ccccc34)[C@@H]2C2CC2)cc1` registered an inhibition in series [15] of 83.4%.
